{"source": "ChEMBL document CHEMBL5226361", "about": "“Marine Sponge-Derived Alkaloid Induces Mitochondrial Dysfunction and Inhibits the PI3K/AKT/mTOR Signaling Pathway against Burkitt's Lymphoma” (J Nat Prod, 2023)", "key": {"Raji [1]": {"system": "Raji", "test": "Induction of apoptosis in human Raji cells assessed as downregulation of BCL-XL expression at 1.25 to 5 uM incubated for 24 hrs by Western blot analysis", "format": "functional, cell-based", "conditions": "dose 1.25-5 µM"}, "Daudi [2]": {"system": "Daudi", "test": "Induction of mitochondrial respiratory chain damage in human Daudi cells assessed as decrease in SDHA protein expression at 1.5 to 3 uM incubated for 48 hrs by Western blot analysis", "format": "functional, cell-based", "conditions": "dose 1.5-3 µM"}, "Daudi [3]": {"system": "Daudi", "test": "Induction of apoptosis in human Daudi cells assessed as late apoptotic cells at 3 uM incubated for 24 hrs in the presence of YS49 by Annexin V-FITC/PI staining based flow cytometric analysis (reference value: 0.0%)", "format": "functional"}, "Raji [4]": {"system": "Raji", "test": "Induction of cell cycle arrest in human Raji cells assessed as accumulation of cells at G0/G1 phase at 5 uM incubated for 48 hrs by PI staining based flow cytometry analysis (reference value: 20.16%)", "format": "functional"}, "Raji [5]": {"system": "Raji", "test": "Induction of apoptosis in human Raji cells assessed as late apoptotic cells at 5 uM incubated for 24 hrs in the presence of YS49 by Annexin V-FITC/PI staining based flow cytometric analysis (reference value: 0.0%)", "format": "functional"}, "Raji [6]": {"system": "Raji", "test": "Induction of mitochondrial respiratory chain damage in human Raji cells assessed as decrease in NDUFV2 protein expression at 2.5 to 5 uM incubated for 48 hrs by Western blot analysis", "format": "functional, cell-based", "conditions": "dose 2.5-5 µM"}, "Daudi [7]": {"system": "Daudi", "test": "Induction of apoptosis in human Daudi cells assessed as nuclear condensation incubated for 24 hrs by Hoechst 33258/PI staining based fluorescence microscopic analysis", "format": "functional, cell-based", "conditions": "dose 0.75-3 µM"}, "Daudi [8]": {"system": "Daudi", "test": "Induction of apoptosis in human Daudi cells assessed as viable cells at 3 uM incubated for 24 hrs in the presence of YS49 by Annexin V-FITC/PI staining based flow cytometric analysis (reference value: 97.2%)", "format": "functional", "conditions": "read-out: Activity"}, "Raji [9]": {"system": "Raji", "test": "Antiproliferative activity against human Raji cells assessed as inhibition of cell growth incubated for 48 hrs by CCK-8 assay", "format": "functional, cell-based"}, "Raji [10]": {"system": "Raji", "test": "Induction of apoptosis in human Raji cells assessed as nuclear fragmentation incubated for 48 hrs by Hoechst 33258/PI staining based fluorescence microscopic analysis", "format": "functional, cell-based", "conditions": "dose 1.25-5 µM"}, "Raji [11]": {"system": "Raji", "test": "Induction of cell cycle arrest in human Raji cells assessed as S phase cells at 5 uM incubated for 48 hrs by PI staining based flow cytometry analysis (reference value: 69.78%)", "format": "functional"}, "Daudi [12]": {"system": "Daudi", "test": "Antiproliferative activity against human Daudi cells assessed as inhibition of cell growth incubated for 48 hrs by CCK-8 assay", "format": "functional, cell-based"}, "Raji [13]": {"system": "Raji", "test": "Induction of apoptosis in human Raji cells assessed as necrotic cells at 5 uM incubated for 24 hrs by Annexin V-FITC/PI staining based flow cytometric analysis (reference value: 1.5%)", "format": "functional"}, "Daudi [14]": {"system": "Daudi", "test": "Induction of cell cycle arrest at G0/G1 phase in human Daudi cells assessed as upregulation of p21 protein expression at 0.75 to 3 uM incubated for 24 to 48 hrs by Western blot analysis", "format": "functional, cell-based", "conditions": "dose 0.75-3 µM, time 24-48 hrs"}, "Raji [15]": {"system": "Raji", "test": "Induction of apoptosis in human Raji cells assessed as upregulation of cytochrome C expression at 1.25 to 5 uM incubated for 24 hrs by Western blot analysis", "format": "functional, cell-based", "conditions": "dose 1.25-5 µM"}, "Daudi [16]": {"system": "Daudi", "test": "Induction of apoptosis in human Daudi cells assessed as upregulation of cleaved PARP expression at 0.75 to 3 uM incubated for 24 hrs by Western blot analysis", "format": "functional, cell-based", "conditions": "dose 0.75-3 µM"}, "Daudi [17]": {"system": "Daudi", "test": "Induction of cell cycle arrest in human Daudi cells assessed as G2 phase cells at 3 uM incubated for 24 hrs by PI staining based flow cytometry analysis (reference value: 25.92%)", "format": "functional"}, "Daudi [18]": {"system": "Daudi", "test": "Induction of mitochondrial dysfunction in human Daudi cells assessed as decrease in ATP-5H protein expression at 1.5 to 3 uM incubated for 48 hrs by Western blot analysis", "format": "functional, cell-based", "conditions": "dose 1.5-3 µM"}, "Daudi [19]": {"system": "Daudi", "test": "Induction of apoptosis in human Daudi cells assessed as late apoptotic cells at 3 uM incubated for 24 hrs by Annexin V-FITC/PI staining based flow cytometric analysis (reference value: 0.0%)", "format": "functional"}, "Raji [20]": {"system": "Raji", "test": "Effect on total mTOR protein level in human Raji cells at 1.25 to 5 uM incubated for 24 hrs by Western blot analysis", "format": "functional, cell-based", "conditions": "dose 1.25-5 µM"}, "Raji [21]": {"system": "Raji", "test": "Induction of cell cycle arrest at G0/G1 phase in human Raji cells assessed as downregulation of CDK4 protein expression at 1.25 to 5 uM incubated for 24 to 48 hrs by Western blot analysis", "format": "functional, cell-based", "conditions": "dose 1.25-5 µM, time 24-48 hrs"}, "Raji [22]": {"system": "Raji", "test": "Induction of apoptosis in human Raji cells assessed as early apoptotic cells at 5 uM incubated for 24 hrs in the presence of YS49 by Annexin V-FITC/PI staining based flow cytometric analysis (reference value: 0.8%)", "format": "functional"}, "[23]": {"test": "Inhibition of PI3K/AKT/mTOR signalling pathway in human Daudi cells assessed as increase in ratio of PI3K phosphorylation to total PI3K protein level at 3 uM incubated for 12 hrs in the presence of YS49 by Western blot analysis", "format": "cell-based"}}, "note": "pIC50: −log10 of the molar value. Activity calls are given as the source filed them. No cut-off for these calls is given here.", "data": [{"smiles": "COc1c(OC)c2c3c(nccc3c1-c1cc(C)cc(C)c1)C(c1cc(C)cc(C)c1)=CN2", "values": [{"measurement": "Activity", "setting": "Raji [1]", "value": "Active"}, {"measurement": "Activity", "setting": "Daudi [2]", "value": "Active"}, {"measurement": "Activity", "setting": "Daudi [3]", "value": 1.5, "unit": "%"}, {"measurement": "Activity", "setting": "Raji [4]", "value": 40.65, "unit": "%"}, {"measurement": "Activity", "setting": "Raji [5]", "value": 0.9, "unit": "%"}, {"measurement": "Activity", "setting": "Raji [6]", "value": "Active"}, {"measurement": "Activity", "setting": "Daudi [7]", "value": "Dose-Dependent Effect"}, {"measurement": "viability at 3 µM", "setting": "Daudi [8]", "value": 80.2, "unit": "%"}, {"measurement": "pIC50", "setting": "Raji [9]", "value": 5.68}, {"measurement": "Activity", "setting": "Raji [10]", "value": "Dose-Dependent Effect"}, {"measurement": "Activity", "setting": "Raji [11]", "value": 49.74, "unit": "%"}, {"measurement": "pIC50", "setting": "Daudi [12]", "value": 5.46}, {"measurement": "Activity", "setting": "Raji [13]", "value": 17, "unit": "%"}, {"measurement": "Activity", "setting": "Daudi [14]", "value": "Active"}, {"measurement": "Activity", "setting": "Raji [15]", "value": "Active"}, {"measurement": "Activity", "setting": "Daudi [16]", "value": "Active"}, {"measurement": "Activity", "setting": "Daudi [17]", "value": 20.27, "unit": "%"}, {"measurement": "Activity", "setting": "Daudi [18]", "value": "Active"}, {"measurement": "Activity", "setting": "Daudi [19]", "value": 5.4, "unit": "%"}, {"measurement": "Activity", "setting": "Raji [20]", "value": "inactive"}, {"measurement": "Activity", "setting": "Raji [21]", "value": "Active"}, {"measurement": "Activity", "setting": "Raji [22]", "value": 11.2, "unit": "%"}, {"measurement": "inhibition", "setting": "[23]", "value": "inactive"}]}]}
